# Source: patent publication US4062950A, “Amino sugar derivatives” (priority 1973, dated 1977)
# Where “and” joins values, the source holds several entries; their conditions need not be identical. Identical values can stand only once.
# Assays:
# pancreas-α-amylase = target: T1, pancreas-α-amylase (Sus scrofa, UniProt P00690); test: In vitro amylase test; format: biochemical
# T1 sequence (P00690 16-511): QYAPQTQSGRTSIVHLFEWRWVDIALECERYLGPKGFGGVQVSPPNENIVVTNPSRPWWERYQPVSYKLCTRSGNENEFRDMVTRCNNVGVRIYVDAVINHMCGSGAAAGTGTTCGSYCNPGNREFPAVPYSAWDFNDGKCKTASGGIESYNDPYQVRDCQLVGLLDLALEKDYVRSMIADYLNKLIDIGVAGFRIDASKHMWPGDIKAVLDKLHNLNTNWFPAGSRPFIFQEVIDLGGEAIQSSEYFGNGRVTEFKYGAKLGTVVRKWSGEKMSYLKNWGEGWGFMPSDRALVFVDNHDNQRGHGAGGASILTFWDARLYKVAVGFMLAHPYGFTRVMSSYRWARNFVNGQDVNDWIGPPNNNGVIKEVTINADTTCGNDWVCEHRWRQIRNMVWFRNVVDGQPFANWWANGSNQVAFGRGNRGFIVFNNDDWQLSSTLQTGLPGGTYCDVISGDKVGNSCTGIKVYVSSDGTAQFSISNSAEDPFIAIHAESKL
# Description: One amylase inhibitor unit (1 AIU) is defined as the amount of inhibitor which inhibits two amylase units to the extent of 50%. One amylase unit (AU) is the amount of enzyme which under the test conditions specified below splits 1 μequivalent of glucoside bonds in the starch per minute. The μequivalents of split bonds are determined colorimetrically as μequivalents of reducing sugars formed, using dinitrosalicylic acid, and are quoted as μequivalents of maltose equivalents, using a maltose calibration curve. To carry out the test, 0.1 ml of amylase solution (20-22 AU/ml) are mixed with 0-10 μg of inhibitor or 0-20 μl of the solution to be tested in 0.4 ml of 0.02 M sodium glycerophosphate buffer/0.001 M CaCl2, pH 6.9, and the mixture is equilibrated for 10-20 minutes in a water bath at 35° C. The mixture is then incubated for 5 minutes at 35° C with 0.5 ml of a 1% strength starch solution which has been pre-warmed to 35° C (soluble starch No. 1,252 from Merck, Darmstadt), and thereafter 1 ml of dinitrosalicyclic acid reagent (according to P. bernfeld in Colowick-Kaplan, Meth. Enzymol., Volume l, page 149) is added. To develop the color, the batch is heated for 5 minutes on a boiling water bath and then cooled, and 10 ml of distilled water are added. The extinction at 540 nm is measured against a correspondingly made-up blank without amylase. […] The percentage inhibition is plotted as a function of the quotient [formula]
# saccharase [1] = target: T2, saccharase (Sus scrofa, UniProt P56729); test: In vitro saccharase test; format: biochemical, pig; conditions: for saccharase inhibiting activity of isolated product: product of the Examples
# T2 construct: sucrase subunit of the sucrase-isomaltase complex hydrolyses sucrose
# Description: One saccharase inhibitor unit (SIU) is defined as the amount of inhibitor which inhibits two saccharase units to the extent of 50%. One saccharase unit (SU) is the amount of enzyme which under the test conditions specified splits 1 μmol of sucrose to glucose and fructose per minute. The μmols of glucose formed are determined quantitatively by means of the glucose oxidase reaction under conditions under which a further splitting of the sucrose by the saccharase no longer takes place. To carry out the test, 0.05 ml of solubilized saccharase [from the mucous membrane of the small intestine of the pig, according to B. Borgastrom, A. Dahlquist, Acta Chem. Scand. 12, (1958), page 1,997], diluted with 0.1 M sodium maleate buffer of pH 6.0 to a SU content adjusted to 0.12 SU is mixed with 0-20 μg of inhibitor or 0-20 μl of the solution to be tested and brought up to 0.1 ml with 0.1 M sodium maleate buffer of pH 6.0. The mixture is equilibrated for 10 minutes at 35° C and 0.1 ml of an 0.05 M sucrose solution in 0.1 M sodium maleate buffer of pH 6.0, pre-warmed to 35° C, is then added. The mixture is incubated for 20 minutes at 35° C, the saccharase reaction is stopped by addition of 1 ml of glucose oxidase reagent, and the incubation is continued for a further 30 minutes at 35° C. (The glucose oxidase reagent is prepared by dissolving 2 mg of glucose oxidase, Boehringer, No. 15,423, in 100 ml of 0.565 M tris-HCl buffer of pH 7.0 and subsequently adding 1 ml of detergent solution (2 g of Triton X 100 + 8 g of 95% strength and analytical grade ethanol), 1 ml of dianisidine solution (260 mg of o-dianisidine. 2HCl in 20 ml of H2 O) and 0.5 ml of 0.1% strength aqueous peroxidase solution, Boehringer, No. 15,302). Thereafter, 1 ml of 50% strength H2 SO4 is added and a measurement carried out at 545 nm against a corresponding blank. To evaluate the results, the percentage inhibition of the saccharase employed is calculated and converted to SIU/g of SIU/liter from the 50% inhibition point, using a glucose calibration curve.
# saccharase [2] = target: T3, saccharase (Rattus norvegicus, UniProt P23739); test: In vivo saccharase inhibition (sucrose overfeeding test) in the fasting rat
# T3 construct: from tissue; host or cells: intestine of the living rat (endogenous enzyme)
# Description: The produce an alimentary hyperglycemia and hyperinsulinaemia, groups of 6 fasting rats are given (a) 2.5 g of sucrose, (b) 2.5 g of maltose or (c) 1 g of boiled starch orally, in aqueous solution or suspension. Six other rats are given the same carbohydrates in the same amount and a glycoside hydrolase inhibitor in the amount indicated. In addition, six other rats are given an appropriate volume of saline. The blood glucose and the serum insulin are then measured at short intervals of time, in the blood from the retro-orbital venous plexus. Blood glucose determinations are carried out in the Auto-Analyser device (Technicon), according to Hoffmann: J. biol.
# starch digestion = test: In vivo starch digestion inhibition (starch feeding test) in the fasting rat
# T2 sequence (P56729 with tags, fused parts or gaps): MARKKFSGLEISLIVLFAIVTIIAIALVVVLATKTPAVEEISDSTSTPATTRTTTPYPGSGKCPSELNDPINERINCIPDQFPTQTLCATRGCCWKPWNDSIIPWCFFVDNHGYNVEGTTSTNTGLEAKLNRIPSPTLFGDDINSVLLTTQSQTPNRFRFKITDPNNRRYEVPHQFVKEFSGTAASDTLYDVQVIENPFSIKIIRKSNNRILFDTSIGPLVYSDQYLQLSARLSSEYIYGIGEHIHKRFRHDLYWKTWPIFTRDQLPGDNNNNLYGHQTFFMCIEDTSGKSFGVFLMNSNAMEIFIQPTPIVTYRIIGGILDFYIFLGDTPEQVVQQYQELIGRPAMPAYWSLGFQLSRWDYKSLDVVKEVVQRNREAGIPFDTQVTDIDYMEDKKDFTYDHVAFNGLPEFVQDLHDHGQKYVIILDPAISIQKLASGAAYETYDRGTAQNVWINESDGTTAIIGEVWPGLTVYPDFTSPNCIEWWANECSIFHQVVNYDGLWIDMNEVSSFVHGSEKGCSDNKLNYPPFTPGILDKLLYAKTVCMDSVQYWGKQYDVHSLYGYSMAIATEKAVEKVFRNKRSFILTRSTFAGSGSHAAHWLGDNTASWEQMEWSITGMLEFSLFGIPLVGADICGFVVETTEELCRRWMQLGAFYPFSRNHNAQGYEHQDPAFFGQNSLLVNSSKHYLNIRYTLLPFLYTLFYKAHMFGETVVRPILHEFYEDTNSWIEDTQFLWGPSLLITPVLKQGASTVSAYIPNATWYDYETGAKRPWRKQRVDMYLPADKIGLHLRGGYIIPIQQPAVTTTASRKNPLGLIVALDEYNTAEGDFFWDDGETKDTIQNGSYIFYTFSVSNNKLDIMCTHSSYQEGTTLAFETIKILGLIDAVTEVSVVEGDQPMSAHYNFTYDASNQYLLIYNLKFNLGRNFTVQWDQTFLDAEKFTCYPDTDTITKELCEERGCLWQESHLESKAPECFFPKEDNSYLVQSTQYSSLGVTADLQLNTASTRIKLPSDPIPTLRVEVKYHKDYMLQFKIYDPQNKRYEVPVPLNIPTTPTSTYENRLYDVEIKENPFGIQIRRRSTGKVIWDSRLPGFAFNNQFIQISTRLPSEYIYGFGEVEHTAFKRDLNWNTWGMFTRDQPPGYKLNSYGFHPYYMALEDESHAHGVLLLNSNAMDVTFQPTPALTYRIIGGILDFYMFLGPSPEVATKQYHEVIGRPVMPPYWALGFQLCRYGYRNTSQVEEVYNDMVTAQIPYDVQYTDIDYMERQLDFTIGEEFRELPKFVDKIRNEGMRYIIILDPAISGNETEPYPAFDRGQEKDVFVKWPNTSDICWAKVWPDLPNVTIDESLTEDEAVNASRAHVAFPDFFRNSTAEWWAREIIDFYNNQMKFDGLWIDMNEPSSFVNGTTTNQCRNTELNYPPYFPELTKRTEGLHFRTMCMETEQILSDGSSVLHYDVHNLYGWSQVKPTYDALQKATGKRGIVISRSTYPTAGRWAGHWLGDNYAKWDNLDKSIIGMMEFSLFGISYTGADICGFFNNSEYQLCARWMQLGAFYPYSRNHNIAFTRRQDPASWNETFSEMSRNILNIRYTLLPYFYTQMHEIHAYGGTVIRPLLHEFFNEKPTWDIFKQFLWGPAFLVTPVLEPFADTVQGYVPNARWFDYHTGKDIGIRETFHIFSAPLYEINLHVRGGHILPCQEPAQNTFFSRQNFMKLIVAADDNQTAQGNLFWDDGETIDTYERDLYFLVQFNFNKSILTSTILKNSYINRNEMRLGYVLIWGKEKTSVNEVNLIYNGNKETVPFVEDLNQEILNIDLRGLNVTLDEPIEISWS
# T3 sequence (P23739 1014-1841 limits assumed): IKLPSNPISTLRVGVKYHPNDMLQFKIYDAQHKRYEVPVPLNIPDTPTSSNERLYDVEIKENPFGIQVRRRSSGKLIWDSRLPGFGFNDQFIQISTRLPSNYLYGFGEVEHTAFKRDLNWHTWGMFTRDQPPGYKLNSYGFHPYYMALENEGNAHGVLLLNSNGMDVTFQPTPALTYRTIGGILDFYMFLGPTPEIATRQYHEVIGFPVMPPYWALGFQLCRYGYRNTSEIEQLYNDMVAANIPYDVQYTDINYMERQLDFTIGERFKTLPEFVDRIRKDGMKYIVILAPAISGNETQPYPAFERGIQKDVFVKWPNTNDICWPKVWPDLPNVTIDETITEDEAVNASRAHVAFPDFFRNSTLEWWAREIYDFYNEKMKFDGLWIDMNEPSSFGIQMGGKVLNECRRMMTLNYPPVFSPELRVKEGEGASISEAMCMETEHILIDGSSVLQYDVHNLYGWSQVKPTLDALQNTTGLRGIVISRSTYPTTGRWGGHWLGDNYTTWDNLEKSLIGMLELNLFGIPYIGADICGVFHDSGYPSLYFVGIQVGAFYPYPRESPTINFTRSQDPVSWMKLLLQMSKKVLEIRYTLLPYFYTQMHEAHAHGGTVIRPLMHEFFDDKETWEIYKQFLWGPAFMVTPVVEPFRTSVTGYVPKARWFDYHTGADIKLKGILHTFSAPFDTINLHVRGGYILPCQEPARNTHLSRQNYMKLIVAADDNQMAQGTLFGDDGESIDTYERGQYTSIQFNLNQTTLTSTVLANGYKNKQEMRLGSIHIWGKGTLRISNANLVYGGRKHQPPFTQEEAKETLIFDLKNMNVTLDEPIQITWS
# T3 sequence (P23739 2-1013 partner limits assumed): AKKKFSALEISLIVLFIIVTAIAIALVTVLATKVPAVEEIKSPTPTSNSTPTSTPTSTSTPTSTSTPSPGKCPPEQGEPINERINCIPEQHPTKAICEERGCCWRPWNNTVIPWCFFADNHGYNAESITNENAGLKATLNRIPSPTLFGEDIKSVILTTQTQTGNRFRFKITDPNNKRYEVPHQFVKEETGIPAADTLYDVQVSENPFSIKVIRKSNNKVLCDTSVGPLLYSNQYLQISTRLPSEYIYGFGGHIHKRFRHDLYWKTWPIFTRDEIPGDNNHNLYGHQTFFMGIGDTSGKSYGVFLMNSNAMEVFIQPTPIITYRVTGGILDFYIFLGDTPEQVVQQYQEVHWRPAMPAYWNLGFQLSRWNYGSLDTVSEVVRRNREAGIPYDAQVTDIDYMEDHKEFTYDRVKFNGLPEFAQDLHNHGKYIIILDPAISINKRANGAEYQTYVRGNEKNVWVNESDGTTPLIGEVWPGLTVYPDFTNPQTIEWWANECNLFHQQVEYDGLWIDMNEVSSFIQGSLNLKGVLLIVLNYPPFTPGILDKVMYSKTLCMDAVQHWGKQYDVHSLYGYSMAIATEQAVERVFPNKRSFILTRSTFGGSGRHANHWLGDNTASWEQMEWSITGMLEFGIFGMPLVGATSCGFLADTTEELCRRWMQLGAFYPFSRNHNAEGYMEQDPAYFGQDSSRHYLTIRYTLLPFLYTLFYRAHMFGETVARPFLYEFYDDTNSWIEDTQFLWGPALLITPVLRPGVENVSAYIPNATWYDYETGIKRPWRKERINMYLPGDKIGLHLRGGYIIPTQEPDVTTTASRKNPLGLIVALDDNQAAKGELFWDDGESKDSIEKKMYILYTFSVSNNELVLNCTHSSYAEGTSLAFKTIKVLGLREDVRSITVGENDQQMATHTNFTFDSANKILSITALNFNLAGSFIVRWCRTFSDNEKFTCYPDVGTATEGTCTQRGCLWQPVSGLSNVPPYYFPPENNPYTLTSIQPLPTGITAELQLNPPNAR
compound,measurement,setting,value
"C[C@H]1O[C@H](O[C@H]2[C@H](O)[C@@H](O)[C@@H](O[C@H]3[C@H](O)[C@@H](O)C(O)O[C@@H]3CO)O[C@@H]2CO)[C@H](O)[C@@H](O)[C@@H]1N[C@H]1C=C(CO)[C@@H](O)[C@H](O)[C@H]1O (stereo partly drawn) [Formula IIIB, O-{4,6-bisdesoxy-4-[1 S-(1,4,6/5)-4,5,6-trihydroxy-3-hydroxymethylcyclohex-2-en-1-ylamino]-α-D-glucopyranosyl}-(1→4)-O-α-D-glucopyranosyl-(1→4)-D-glucopyranose]",α-Amylase Inhibition,"pancreas-α-amylase; in vitro, Table II","300,000 AIU/g"
same,α-Amylase Inhibition In Vitro,"pancreas-α-amylase; in vitro, Table VI",300 AIU/mg
same,amylase inhibiting activity of isolated product,pancreas-α-amylase; isolated product of the Examples,0.3 × 10^6 AIU/g
same,"Saccharase inhibition, in words",saccharase [1]; in vitro,most pronounced
same,Saccharase Inhibition,"saccharase [1]; in vitro, Table II","68,000 SIU/g"
same,Saccharase Inhibition In Vitro,"saccharase [1]; in vitro, Table IV",68 SIU/mg
same,saccharase inhibiting activity of isolated product,saccharase [1]; listed as 2 glucose units,"50,000 SIU/g and 60,000 SIU/g"
same,saccharase inhibiting activity of isolated product,saccharase [1]; listed as 2 units,"68,000 SIU/g"
same,saccharase inhibiting activity of isolated product,saccharase [1]; listed as two glucose units,"65,000 SIU/g"
same,Blood Glucose (Mean ± SD),"saccharase [2]; 2.5 g sucrose + 25 SIU oral, 15 Min.",71 ± 3.7 mg%
same,Blood Glucose (Mean ± SD),"saccharase [2]; 2.5 g sucrose + 25 SIU oral, 30 Min.",100 ± 7.3 mg%
same,Blood Glucose (Mean ± SD),"saccharase [2]; 2.5 g sucrose + 25 SIU oral, 45 Min.",107 ± 2.4 mg%
same,Blood Glucose (Mean ± SD),"saccharase [2]; 2.5 g sucrose + 100 SIU oral, 15 Min.",58 ± 5.9 mg%
same,Blood Glucose (Mean ± SD),"saccharase [2]; 2.5 g sucrose + 100 SIU oral, 30 Min.",92 ± 4.0 mg%
same,Blood Glucose (Mean ± SD),"saccharase [2]; 2.5 g sucrose + 100 SIU oral, 45 Min.",98 ± 5.0 mg%
same,ED50,"saccharase [2]; rat, read-out: Saccharase Inhibition (ED50 mg/kg)",0.21 mg/kg
same,Blood Glucose (Mean ± SD),"starch digestion; 1 g starch + 150 AIU oral, 5 Min.",82 ± 7.5 mg%
same,Blood Glucose (Mean ± SD),"starch digestion; 1 g starch + 150 AIU oral, 10 Min.",105 ± 4.2 mg%
same,Blood Glucose (Mean ± SD),"starch digestion; 1 g starch + 150 AIU oral, 15 Min.",120 ± 6.0 mg%
same,Blood Glucose (Mean ± SD),"starch digestion; 1 g starch + 150 AIU oral, 20 Min.",124 ± 7.0 mg%
same,Blood Glucose (Mean ± SD),"starch digestion; 1 g starch + 150 AIU oral, 30 Min.",134 ± 6.1 mg%
same,Blood Glucose (Mean ± SD),"starch digestion; 1 g starch + 150 AIU oral, 45 Min.",125 ± 5.2 mg%
same,Blood Glucose (Mean ± SD),"starch digestion; 1 g starch + 300 AIU oral, 5 Min.",79 ± 8.2 mg%
same,Blood Glucose (Mean ± SD),"starch digestion; 1 g starch + 300 AIU oral, 10 Min.",97 ± 2.7 mg%
same,Blood Glucose (Mean ± SD),"starch digestion; 1 g starch + 300 AIU oral, 15 Min.",105 ± 10 mg%
same,Blood Glucose (Mean ± SD),"starch digestion; 1 g starch + 300 AIU oral, 20 Min.",118 ± 6.7 mg%
same,Blood Glucose (Mean ± SD),"starch digestion; 1 g starch + 300 AIU oral, 30 Min.",119 ± 9.9 mg%
same,Blood Glucose (Mean ± SD),"starch digestion; 1 g starch + 300 AIU oral, 45 Min.",130 ± 5.9 mg%
same,Blood Glucose (Mean ± SD),"starch digestion; 1 g starch + 600 AIU oral, 5 Min.",70 ± 4.6 mg%
same,Blood Glucose (Mean ± SD),"starch digestion; 1 g starch + 600 AIU oral, 10 Min.",80 ± 8.8 mg%
same,Blood Glucose (Mean ± SD),"starch digestion; 1 g starch + 600 AIU oral, 15 Min.",94 ± 6.9 mg%
same,Blood Glucose (Mean ± SD),"starch digestion; 1 g starch + 600 AIU oral, 20 Min.",91 ± 16 mg%
same,Blood Glucose (Mean ± SD),"starch digestion; 1 g starch + 600 AIU oral, 30 Min.",103 ± 9.2 mg%
same,Blood Glucose (Mean ± SD),"starch digestion; 1 g starch + 600 AIU oral, 45 Min.",102 ± 4.2 mg%
same,Blood Glucose (Mean ± SD),"starch digestion; 1 g starch + 1,200 AIU oral, 5 Min.",70 ± 7.0 mg%
same,Blood Glucose (Mean ± SD),"starch digestion; 1 g starch + 1,200 AIU oral, 10 Min.",84 ± 7.7 mg%
same,Blood Glucose (Mean ± SD),"starch digestion; 1 g starch + 1,200 AIU oral, 15 Min.",88 ± 7.4 mg%
same,Blood Glucose (Mean ± SD),"starch digestion; 1 g starch + 1,200 AIU oral, 20 Min.",97 ± 5.2 mg%
same,Blood Glucose (Mean ± SD),"starch digestion; 1 g starch + 1,200 AIU oral, 30 Min.",97 mg%
same,Blood Glucose (Mean ± SD),"starch digestion; 1 g starch + 1,200 AIU oral, 45 Min.",100 ± 4.3 mg%
same,ED50,"starch digestion; ED50, starch, fasting rat, Table VI",1.6 mg/kg
same,"in vivo inhibition of starch digestion, in words",starch digestion; compared with expectation from in vitro amylase inhibition,much higher than would be expected
